Structures can show the parent of a compound that is named as a salt.
Experiments:
DEX-treated mice [1] = test: Forced swimming test (FST) in DEX-induced depression-like animal model; assay type: in vivo, ICR mice; settings: 120 mg/kg of ketamine free-base; for onset of antidepressant effect on FST: single injection; for immobility time in FST: single s.c. injection
Method: (§1) ICR mice were intraperitoneally injected with saline or DEX at postnatal day 1 to 3 (P1-P3) with dose decrement of 0.5 mg/kg, 0.3 mg/kg, and 0.1 mg/kg, respectively. The drugs for each group or saline were administered subcutaneously at postnatal day 35, P35 (i.e., dosing day 0, D0), and forced swimming test (FST) was conducted on dosing day 1 (D1, P36) and dosing day 10 (P45) after drug administration. Evaluation of sedation behavior was also conducted by sedation rating scale from the time immediately post injection to dosing day 14 (P49) after drug administration.
(§2) Neonatal ICR mice (BioLASCO, Taipei, Taiwan) were intraperitoneally injected with saline or DEX on postnatal day 1, 2, and 3 (P1, P2, and P3) at doses of 0.5 mg/kg, 0.3 mg/kg, and 0.1 mg/kg, respectively. […] The dugs were then subcutaneously injected into mice of the corresponding groups at postnatal day 35, while the mice of the Control and Saline groups were injected with equal volumes of 0.9% saline. Drugs for administration were prepared in phosphate-buffered saline (PBS), and then well mixed by high speed vortex before injection.
Antidepressant effects were evaluated by forced swimming test (FST), which performed on dosing day 1 (P36) and dosing day 10 (P45) after drug administration. The mice of all groups were trained for swimming before drug administration. During the FST, mice were individually placed into 5 L glass cylinders (height 27 cm, diameter 18 cm) filled with 4 L of water (23±1° C.). The total duration of immobility time during 5 minutes of FST was observed. Results were presented as mean±SEM. Student's t-test was utilized to analyze Saline group (DEX-treated mouse group injected with saline) versus the other groups at each time point. * p<0.05, ** p<0.01, and *** p<0.001 indicate significant differences compared to the Saline group.

DEX-treated mice [2] = test: Sedation behavior by rodent sedation rating scale; assay type: in vivo, ICR mice; settings: s.c., 120 mg/kg of ketamine free-base; for sedation behavior (rodent sedation rating scale): immediately post injection to 14 days
Method: as §1, §2
Furthermore, sedation behavior was also evaluated by rodent sedation rating scale (Table 6) immediately post drug administration to 14 days.

beagle dogs = test: Injection site evaluation by Draize skin erythema/eschar rating scale; assay type: in vivo; settings: male beagle dogs, individual animals, single 44 mg/kg of ketamine free-base, Day 1, 2, 4, 8, 15
Method: A specific in vivo study to evaluate the injection site reaction of KEP was conducted in beagle dogs ([…] LABES, CO., LTD. Ina, Japan).

[3] = test system: female Sprague Dawley (SD) rats; test: 3-month repeat-dose toxicology study; settings: for neuronal morphology in prefrontal cortex / bladder mucosal folds (histopathology) / bladder apical epithelial surfaces (histopathology): total 1440 mg/kg of ketamine free-base; for neuronal morphology in prefrontal cortex: brain slices; for bladder mucosal folds (histopathology): magnification x40; for bladder apical epithelial surfaces (histopathology): magnification x400; for injection site observation (skin surface) / injection site histopathology: inflammatory cells at higher magnification / injection site histopathology: tissue morphology: KET 60 mg/kg twice weekly, KEP 480 mg/kg monthly; for injection site histopathology: inflammatory cells at higher magnification / injection site histopathology: tissue morphology: HE staining
[4] = in vivo; cited from earlier work

| Molecule | onset of antidepressant effect on FST (DEX-treated mice [1]) | immobility time in FST (DEX-treated mice [1]; day 1 after administration) | immobility time in FST (DEX-treated mice [1]; day 10 after administration) | sedation behavior (rodent sedation rating scale) (DEX-treated mice [2]) | Draize skin erythema/eschar observation at injection site (beagle dogs) | tolerability of single subcutaneous injection ([3]; 480 mg/kg of ketamine free-base) | neuronal morphology in prefrontal cortex ([3]; 12 weeks) | bladder mucosal folds (histopathology) ([3]; 12 weeks) | bladder apical epithelial surfaces (histopathology) ([3]; 12 weeks) | density of inflammatory cells at injection site under microscopic fields ([3]; s.c., 12 weeks, KEP 480 mg/kg monthly versus KET 60 mg/kg twice weekly) | injection site observation (skin surface) ([3]; s.c., 12 weeks) | injection site histopathology: inflammatory cells at higher magnification ([3]; s.c., 12 weeks) | injection site histopathology: tissue morphology ([3]; s.c., 12 weeks) | LD50 dose [4] [mg/kg] | time to full recovery from sedation (DEX-treated mice [2]; post administration) [h] | pathological bladder and brain changes ([3]; high dose subchronic treatment for 12 weeks) | maximum tolerated dose (MTD) ([3]; subcutaneous injection) |
| --- | --- | --- | --- | --- | --- | --- | --- | --- | --- | --- | --- | --- | --- | --- | --- | --- | --- |
| R, S-ketamine pamoate [KEP] | rapid-onset antidepressant effects | reduced the immobility times | reduced the immobility times | normal behavior | No erythema | well tolerable | normal | thin mucosal folds | rough | much less than KET group | normal skin surfaces | infiltration of inflammatory cells in connective tissues | normal morphology of skin slices | – | – | – | – |
| CN[C@]1(c2ccccc2Cl)CCCCC1=O [S-KEP, S-ketamine pamoate] | rapid-onset antidepressant effects | reduced the immobility times | reduced the immobility times | normal behavior | – | – | – | – | – | – | – | – | – | – | – | – | – |
| CN[C@@]1(c2ccccc2Cl)CCCCC1=O [R-KEP, R-ketamine pamoate] | rapid-onset antidepressant effects | reduced the immobility times | reduced the immobility times | normal behavior | – | – | – | – | – | – | – | – | – | – | – | – | – |
| CNC1(c2ccccc2Cl)CCCCC1=O (centres unmarked) [ketamine] | – | – | – | – | – | – | – | – | – | – | – | – | – | 229 | – | – | – |
| CNC1(c2ccccc2Cl)CCCCC1=O (centres unmarked) [KET, ketamine HCl, reference compound] | rapid-onset antidepressant effects | reduced the immobility times | reduced the immobility times | heavy sedation-related behavior | – | – | granule cells were lack, and the morphology of pyramidal cells changed to be small or shrinking like in process of degradation | protrusive and enlarged mucosal folds | smooth | – | injection site erythema, which gradually became open wound | infiltration of inflammatory cells in connective tissues | morphology damage on epidermis, dermis, subcutis, and muscle tissues | – | 2 | bladder fibrosis and neuronal morphology alteration in brain | 60 mg/kg of ketamine free-base |
